Data taken from ChEMBL document CHEMBL1909046, “DrugMatrix in vitro pharmacology data”.

How the values were obtained:
Cytochrome P450 2C9 = Cytochrome P450 2C9 (Homo sapiens, UniProt P11712); details: bti-tn-5b1-4; also: in other assays of this panel Not Active means under 50% inhibition at 10 µM
[1] = molecular target: Platelet-activating factor receptor (Homo sapiens, UniProt P25105); format: tissue-based; also: in other assays of this panel Not Active means under 50% inhibition at 10 µM
Cytochrome P450 3A4 = Cytochrome P450 3A4 (Homo sapiens, UniProt P08684); details: bti-tn-5b1-4; also: in other assays of this panel Not Active means under 50% inhibition at 10 µM
[2] = molecular target: Vascular endothelial growth factor receptor 1 (Homo sapiens, UniProt P17948); format: cell-based; details: huvec; also: in other assays of this panel Not Active means under 50% inhibition at 10 µM
Adenosine receptor A3 = molecular target: T1, Adenosine receptor A3 (Homo sapiens, UniProt P0DMS8); format: cell membranes, CHO-K1, Membrane
T1 sequence (P0DMS8 whole entry): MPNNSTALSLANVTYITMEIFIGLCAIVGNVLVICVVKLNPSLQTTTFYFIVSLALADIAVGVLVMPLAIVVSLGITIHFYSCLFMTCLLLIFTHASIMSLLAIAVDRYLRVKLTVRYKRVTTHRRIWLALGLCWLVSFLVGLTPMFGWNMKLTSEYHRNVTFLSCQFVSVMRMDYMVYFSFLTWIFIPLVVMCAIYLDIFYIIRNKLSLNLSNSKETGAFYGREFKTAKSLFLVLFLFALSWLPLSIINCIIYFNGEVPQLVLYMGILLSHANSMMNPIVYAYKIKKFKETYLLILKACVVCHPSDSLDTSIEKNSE

[3] = DRUGMATRIX: Calcium Channel Type L, Phenylalkylamine radioligand binding (ligand: [3H] (-)-Desmethoxyverapamil (D-888)); format: cell membranes, Rattus norvegicus, Wistar, Brain, Membrane; details: Not Active = under 50% inhibition at 10 µM
[4] = molecular target: T2, Polyunsaturated fatty acid lipoxygenase ALOX15 (Oryctolagus cuniculus, UniProt P12530); test: biochemical; format: tissue-based, Reticulocytes; details: reticulocytes
T2 sequence (P12530 whole entry): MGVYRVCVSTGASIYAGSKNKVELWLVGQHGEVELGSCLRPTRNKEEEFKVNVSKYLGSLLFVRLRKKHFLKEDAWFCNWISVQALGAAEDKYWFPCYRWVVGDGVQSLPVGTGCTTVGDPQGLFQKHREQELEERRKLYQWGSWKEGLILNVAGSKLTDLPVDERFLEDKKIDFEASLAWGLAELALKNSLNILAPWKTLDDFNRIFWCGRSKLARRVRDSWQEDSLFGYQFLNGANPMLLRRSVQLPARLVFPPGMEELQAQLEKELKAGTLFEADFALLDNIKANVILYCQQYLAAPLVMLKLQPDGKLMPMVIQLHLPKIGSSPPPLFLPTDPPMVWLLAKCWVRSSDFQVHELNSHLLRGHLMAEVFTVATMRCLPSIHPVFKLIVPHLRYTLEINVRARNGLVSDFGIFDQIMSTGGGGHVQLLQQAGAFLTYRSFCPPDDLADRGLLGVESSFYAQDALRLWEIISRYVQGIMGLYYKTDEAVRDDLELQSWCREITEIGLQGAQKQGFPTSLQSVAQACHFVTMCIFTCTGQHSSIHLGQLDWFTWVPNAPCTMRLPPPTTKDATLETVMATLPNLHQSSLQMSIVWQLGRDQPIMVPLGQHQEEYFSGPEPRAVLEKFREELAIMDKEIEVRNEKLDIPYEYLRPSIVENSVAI

[5] = molecular target: T3, Neuropeptide Y receptor type 2 (Homo sapiens, UniProt P49146); format: cell membranes, Membrane; details: kan-ts; also: in other assays of this panel Not Active means under 50% inhibition at 10 µM
T3 sequence (P49146 whole entry): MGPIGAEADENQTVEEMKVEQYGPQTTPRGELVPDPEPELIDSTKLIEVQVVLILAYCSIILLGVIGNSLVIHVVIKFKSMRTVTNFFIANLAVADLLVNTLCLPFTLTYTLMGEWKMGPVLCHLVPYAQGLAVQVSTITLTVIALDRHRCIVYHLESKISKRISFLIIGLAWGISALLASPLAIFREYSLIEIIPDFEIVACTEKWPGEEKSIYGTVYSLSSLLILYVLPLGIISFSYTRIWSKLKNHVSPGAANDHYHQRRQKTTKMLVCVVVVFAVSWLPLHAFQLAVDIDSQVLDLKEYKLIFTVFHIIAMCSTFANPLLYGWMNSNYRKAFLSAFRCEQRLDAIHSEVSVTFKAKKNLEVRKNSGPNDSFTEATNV

[6] = molecular target: Receptor tyrosine-protein kinase erbB-2 (Homo sapiens, UniProt P04626); test: biochemical; format: cell-based, Insect cells; details: insect cells
[7] = DRUGMATRIX: Atrial Natriuretic Factor (ANF) radioligand binding (ligand: [125I] ANF (rat)); format: cell membranes, Cavia porcellus, Dunkin-Hartley, Adrenal gland, Membrane; details: Not Active = under 50% inhibition at 10 µM

Sequence of Receptor tyrosine-protein kinase erbB-2 (P04626 whole entry): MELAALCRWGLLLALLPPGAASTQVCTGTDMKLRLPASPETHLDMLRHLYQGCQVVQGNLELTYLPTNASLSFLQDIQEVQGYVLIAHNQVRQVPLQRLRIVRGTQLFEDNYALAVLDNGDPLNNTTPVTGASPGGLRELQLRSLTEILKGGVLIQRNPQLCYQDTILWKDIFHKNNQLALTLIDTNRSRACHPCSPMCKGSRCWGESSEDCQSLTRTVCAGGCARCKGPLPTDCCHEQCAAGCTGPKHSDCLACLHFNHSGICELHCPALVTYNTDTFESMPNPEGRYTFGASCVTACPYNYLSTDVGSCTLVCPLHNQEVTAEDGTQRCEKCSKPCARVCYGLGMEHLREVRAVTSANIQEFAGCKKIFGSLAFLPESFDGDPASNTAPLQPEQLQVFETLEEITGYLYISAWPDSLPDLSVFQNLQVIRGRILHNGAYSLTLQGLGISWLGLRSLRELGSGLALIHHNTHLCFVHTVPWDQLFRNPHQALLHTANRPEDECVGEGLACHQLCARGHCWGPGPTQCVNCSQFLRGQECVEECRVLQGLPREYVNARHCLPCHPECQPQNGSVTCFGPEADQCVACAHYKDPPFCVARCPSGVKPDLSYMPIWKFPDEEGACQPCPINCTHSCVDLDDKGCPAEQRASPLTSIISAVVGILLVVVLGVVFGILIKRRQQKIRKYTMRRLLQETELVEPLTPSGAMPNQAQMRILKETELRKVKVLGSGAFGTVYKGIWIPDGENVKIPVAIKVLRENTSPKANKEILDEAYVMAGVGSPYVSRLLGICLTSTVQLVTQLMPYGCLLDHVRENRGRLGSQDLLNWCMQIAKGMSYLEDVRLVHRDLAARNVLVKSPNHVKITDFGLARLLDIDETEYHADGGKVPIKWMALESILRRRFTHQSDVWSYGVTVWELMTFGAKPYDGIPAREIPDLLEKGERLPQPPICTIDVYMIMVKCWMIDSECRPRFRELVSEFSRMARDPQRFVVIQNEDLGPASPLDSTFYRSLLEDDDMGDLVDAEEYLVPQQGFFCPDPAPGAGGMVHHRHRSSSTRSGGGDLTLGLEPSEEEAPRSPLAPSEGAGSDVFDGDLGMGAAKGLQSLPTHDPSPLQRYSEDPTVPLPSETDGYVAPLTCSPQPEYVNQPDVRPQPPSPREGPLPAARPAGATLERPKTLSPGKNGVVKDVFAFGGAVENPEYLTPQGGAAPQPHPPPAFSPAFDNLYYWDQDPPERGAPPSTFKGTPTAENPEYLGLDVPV
Sequence of Platelet-activating factor receptor (P25105 whole entry): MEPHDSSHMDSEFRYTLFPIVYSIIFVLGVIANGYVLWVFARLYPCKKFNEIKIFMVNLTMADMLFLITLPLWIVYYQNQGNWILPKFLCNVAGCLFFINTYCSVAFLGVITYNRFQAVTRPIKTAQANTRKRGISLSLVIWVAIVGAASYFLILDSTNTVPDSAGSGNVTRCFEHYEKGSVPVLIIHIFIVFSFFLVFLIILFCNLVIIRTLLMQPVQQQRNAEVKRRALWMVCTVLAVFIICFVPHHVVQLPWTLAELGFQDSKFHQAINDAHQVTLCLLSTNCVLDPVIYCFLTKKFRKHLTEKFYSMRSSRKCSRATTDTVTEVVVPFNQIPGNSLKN
Sequence of Vascular endothelial growth factor receptor 1 (P17948 whole entry): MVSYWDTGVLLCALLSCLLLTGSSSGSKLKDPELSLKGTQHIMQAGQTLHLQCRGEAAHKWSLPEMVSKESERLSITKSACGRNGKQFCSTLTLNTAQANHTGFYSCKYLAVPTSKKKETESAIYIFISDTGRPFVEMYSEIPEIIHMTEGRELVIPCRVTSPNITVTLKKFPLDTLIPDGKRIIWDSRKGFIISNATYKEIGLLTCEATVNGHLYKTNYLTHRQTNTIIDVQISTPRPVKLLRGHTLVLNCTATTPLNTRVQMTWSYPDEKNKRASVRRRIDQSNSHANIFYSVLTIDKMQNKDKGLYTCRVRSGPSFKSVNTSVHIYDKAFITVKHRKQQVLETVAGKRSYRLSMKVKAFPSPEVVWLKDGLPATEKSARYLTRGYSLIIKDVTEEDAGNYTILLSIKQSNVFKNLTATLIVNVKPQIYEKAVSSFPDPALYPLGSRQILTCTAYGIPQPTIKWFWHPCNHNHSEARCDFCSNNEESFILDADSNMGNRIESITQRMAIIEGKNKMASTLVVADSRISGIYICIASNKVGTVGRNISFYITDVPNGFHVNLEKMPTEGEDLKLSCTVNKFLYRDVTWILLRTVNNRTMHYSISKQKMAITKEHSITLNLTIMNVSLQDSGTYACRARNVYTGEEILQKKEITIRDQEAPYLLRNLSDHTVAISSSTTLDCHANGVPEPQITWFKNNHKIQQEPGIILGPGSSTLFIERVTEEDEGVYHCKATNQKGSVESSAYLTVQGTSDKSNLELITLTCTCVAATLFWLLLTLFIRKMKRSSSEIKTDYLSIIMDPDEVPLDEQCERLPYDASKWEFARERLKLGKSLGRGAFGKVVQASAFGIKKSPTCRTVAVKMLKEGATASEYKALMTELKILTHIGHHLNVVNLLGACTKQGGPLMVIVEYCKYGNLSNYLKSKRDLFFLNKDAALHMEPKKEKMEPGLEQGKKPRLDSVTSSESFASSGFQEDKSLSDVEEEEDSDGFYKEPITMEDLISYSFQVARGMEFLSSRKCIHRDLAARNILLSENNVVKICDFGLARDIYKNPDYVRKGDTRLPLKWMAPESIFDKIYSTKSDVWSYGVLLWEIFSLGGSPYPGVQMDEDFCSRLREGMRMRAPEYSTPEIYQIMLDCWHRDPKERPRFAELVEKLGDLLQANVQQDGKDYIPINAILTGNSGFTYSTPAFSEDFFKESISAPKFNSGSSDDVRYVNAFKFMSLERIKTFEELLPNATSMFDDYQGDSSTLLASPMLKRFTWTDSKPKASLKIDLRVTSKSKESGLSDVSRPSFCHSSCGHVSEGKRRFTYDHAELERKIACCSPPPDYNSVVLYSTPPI
Sequence of Cytochrome P450 2C9 (P11712 whole entry): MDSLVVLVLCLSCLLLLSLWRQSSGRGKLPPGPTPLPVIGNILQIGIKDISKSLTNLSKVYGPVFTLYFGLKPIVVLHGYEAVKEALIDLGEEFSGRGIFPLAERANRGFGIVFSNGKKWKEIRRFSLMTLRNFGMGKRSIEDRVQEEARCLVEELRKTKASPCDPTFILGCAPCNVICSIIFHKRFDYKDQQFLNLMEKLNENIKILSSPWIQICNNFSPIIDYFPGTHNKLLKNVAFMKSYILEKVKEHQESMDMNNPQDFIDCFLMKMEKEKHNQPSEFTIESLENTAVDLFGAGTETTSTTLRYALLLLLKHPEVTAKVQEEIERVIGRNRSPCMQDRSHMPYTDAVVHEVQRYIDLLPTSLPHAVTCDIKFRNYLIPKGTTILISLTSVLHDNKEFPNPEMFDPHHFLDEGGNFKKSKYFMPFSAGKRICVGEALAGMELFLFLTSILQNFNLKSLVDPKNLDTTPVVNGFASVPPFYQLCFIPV
Sequence of Cytochrome P450 3A4 (P08684 whole entry): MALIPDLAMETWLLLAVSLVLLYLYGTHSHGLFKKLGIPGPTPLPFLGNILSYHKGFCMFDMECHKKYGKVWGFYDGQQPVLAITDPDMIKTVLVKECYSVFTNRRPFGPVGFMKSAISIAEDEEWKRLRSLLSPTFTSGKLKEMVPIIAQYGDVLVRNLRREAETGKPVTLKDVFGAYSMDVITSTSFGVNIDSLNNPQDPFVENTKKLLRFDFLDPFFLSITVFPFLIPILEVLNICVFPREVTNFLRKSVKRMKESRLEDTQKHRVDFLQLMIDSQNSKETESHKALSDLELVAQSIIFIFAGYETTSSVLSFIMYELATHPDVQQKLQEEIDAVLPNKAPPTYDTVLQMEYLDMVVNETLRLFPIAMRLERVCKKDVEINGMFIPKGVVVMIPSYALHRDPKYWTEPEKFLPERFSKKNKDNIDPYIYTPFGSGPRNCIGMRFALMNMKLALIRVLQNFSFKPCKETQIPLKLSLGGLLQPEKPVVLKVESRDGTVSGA

SMILES	IC50 (Cytochrome P450 2C9)	Ki (Cytochrome P450 2C9)	IC50 [1]	IC50 (Cytochrome P450 3A4)	Ki (Cytochrome P450 3A4)	IC50 [2]	IC50 (Adenosine receptor A3; cho-k1)	IC50 [3]	Ki [3]	IC50 [4]	IC50 [5]	IC50 [6]	IC50 [7]	Ki [7]	IC50 (Adenosine receptor A3; read-out: IC50) [nM]	Ki (Adenosine receptor A3; read-out: Ki) [nM]	IC50 ([3]; read-out: IC50) [nM]	Ki ([3]; read-out: Ki) [nM]
CC1=C(CC(=O)O)c2cc(F)ccc2/C1=C\c1ccc([S+](C)[O-])cc1 (stereo unspecified)	Not Active	Not Active	Not Active	Not Active	Not Active	Not Active	Not Active	Not Active	Not Active	Not Active	Not Active	Not Active	Not Active	Not Active	–	–	–	–
N[C@H](CSC(=S)NCc1ccccc1)C(=O)O	Not Active	Not Active	Not Active	Not Active	Not Active	Not Active	Not Active	Not Active	Not Active	Not Active	Not Active	Not Active	Not Active	Not Active	–	–	–	–
CC(=O)N[C@@H]1[C@H](Oc2c3cc4cc2Oc2ccc(cc2Cl)[C@@H](O[C@@H]2O[C@@H](CO)[C@@H](O)[C@H](O)[C@@H]2NC(C)=O)[C@@H]2NC(=O)[C@H](NC(=O)[C@@H]4NC(=O)[C@H]4NC(=O)[C@@H](Cc5ccc(c(Cl)c5)O3)NC(=O)[C@H](N)c3ccc(O)c(c3)Oc3cc(O)cc4c3)c3ccc(O)c(c3)-c3c(O[C@H]4O[C@H](CO)[C@@H](O)[C@@H](O)[C@@H]4O)cc(O)cc3[C@@H](C(=O)O)NC2=O)O[C@@H](CO)[C@@H](O)[C@@H]1O	Not Active	Not Active	Not Active	Not Active	Not Active	Not Active	Not Active	Not Active	Not Active	Not Active	Not Active	Not Active	Not Active	Not Active	–	–	–	–
COCCCOc1ccnc(C[S+]([O-])c2nc3ccccc3[nH]2)c1C (stereo unspecified) [RABEPRAZOLE]	Not Active	Not Active	Not Active	Not Active	Not Active	Not Active	–	Not Active	Not Active	Not Active	Not Active	Not Active	Not Active	Not Active	3220	1820	–	–
CNC(=C[N+](=O)[O-])NCCSCc1ccc(CN(C)C)o1 [RANITIDINE]	Not Active	Not Active	Not Active	Not Active	Not Active	Not Active	Not Active	Not Active	Not Active	Not Active	Not Active	Not Active	Not Active	Not Active	–	–	–	–
CO[C@H]1/C=C/O[C@@]2(C)Oc3c(C)c(O)c4c(c3C2=O)C2=NC3(CCN(CC(C)C)CC3)NC2=C(NC(=O)/C(C)=C\C=C\[C@H](C)[C@H](O)[C@@H](C)[C@@H](O)[C@@H](C)[C@H](OC(C)=O)[C@@H]1C)C4=O [RIFABUTIN]	Not Active	Not Active	Not Active	Not Active	Not Active	Not Active	Not Active	Not Active	Not Active	Not Active	Not Active	Not Active	Not Active	Not Active	–	–	–	–
CC(C)CC(N(C)C)C1(c2ccc(Cl)cc2)CCC1 (stereo unspecified) [SIBUTRAMINE]	Not Active	Not Active	Not Active	Not Active	Not Active	Not Active	Not Active	–	–	Not Active	Not Active	Not Active	Not Active	Not Active	–	–	2720	2650
[H]/N=C(/N)N[C@H]1[C@H](O)[C@@H](O)[C@H](O[C@@H]2O[C@@H](C)[C@](O)(C=O)[C@H]2O[C@@H]2O[C@@H](CO)[C@H](O)[C@@H](O)[C@@H]2NC)[C@@H](N/C(N)=N\[H])[C@@H]1O [STREPTOMYCIN]	Not Active	Not Active	Not Active	Not Active	Not Active	Not Active	Not Active	Not Active	Not Active	Not Active	Not Active	Not Active	Not Active	Not Active	–	–	–	–
Cc1cc(C)nc(NS(=O)(=O)c2ccc(N)cc2)n1 [SULFAMETHAZINE]	Not Active	Not Active	Not Active	Not Active	Not Active	Not Active	Not Active	Not Active	Not Active	Not Active	Not Active	Not Active	Not Active	Not Active	–	–	–	–
C[C@]1(Cn2ccnn2)[C@H](C(=O)O)N2C(=O)C[C@H]2S1(=O)=O [TAZOBACTAM]	Not Active	Not Active	Not Active	Not Active	Not Active	Not Active	Not Active	Not Active	Not Active	Not Active	Not Active	Not Active	Not Active	Not Active	–	–	–	–
CN1C(C(=O)Nc2ccccn2)=C(O)c2sccc2S1(=O)=O [TENOXICAM]	Not Active	Not Active	Not Active	Not Active	Not Active	Not Active	Not Active	Not Active	Not Active	Not Active	Not Active	Not Active	Not Active	Not Active	–	–	–	–
O=C1CCC(N2C(=O)c3ccccc3C2=O)C(=O)N1 (stereo unspecified) [THALIDOMIDE]	Not Active	Not Active	Not Active	Not Active	Not Active	Not Active	Not Active	Not Active	Not Active	Not Active	Not Active	Not Active	Not Active	Not Active	–	–	–	–
Cc1cccc(Nc2ccncc2S(=O)(=O)NC(=O)NC(C)C)c1 [TORSEMIDE]	Not Active	Not Active	Not Active	Not Active	Not Active	Not Active	Not Active	Not Active	Not Active	Not Active	Not Active	Not Active	Not Active	Not Active	–	–	–	–
CC(C)C[C@H](NC(=O)[C@@H](O)[C@H](N)Cc1ccccc1)C(=O)O [UBENIMEX]	Not Active	Not Active	Not Active	Not Active	Not Active	Not Active	Not Active	Not Active	Not Active	Not Active	Not Active	Not Active	Not Active	Not Active	–	–	–	–
Cc1onc(-c2ccccc2)c1-c1ccc(S(N)(=O)=O)cc1 [VALDECOXIB]	Not Active	Not Active	Not Active	Not Active	Not Active	Not Active	Not Active	Not Active	Not Active	Not Active	Not Active	Not Active	Not Active	Not Active	–	–	–	–
